# Literature values as cited in article PMC8550792, “Evolution of kinase polypharmacology across HSP90 drug discovery” (Cell Chemical Biology, 2021).
# Columns and labels:
# Design in all cases: method as in Becher et al., 2013
# DDR1 = conditions: chemoproteomics; ref Becher et al., 2013; read-out: Kd,app (ATP-Mg), DDR1; cited from earlier work
# ABL1 = conditions: chemoproteomics; ref Becher et al., 2013; read-out: Kd,app (ATP-Mg), ABL1; cited from earlier work
# ABL2 = conditions: chemoproteomics; ref Becher et al., 2013; read-out: Kd,app (ATP-Mg), ABL2; cited from earlier work
structure (smiles),measurement,setting,value
Nc1ncnc2c1ncn2[C@@H]1O[C@H](COP(=O)(O)OP(=O)(O)OP(=O)(O)O)[C@@H](O)[C@H]1O [ATP-Mg],Kd,DDR1,> 1000 µM
same,Kd,ABL1,37 to 99 µM
same,Kd,ABL2,423 µM
